In ChEMBL document CHEMBL4428095, “Evolution of physicochemical properties of melanin concentrating hormone receptor 1 (MCHr1) antagonists” (Bioorg Med Chem Lett, 2016):

How the values were obtained:
[1] = Protein binding in rat serum; assay type: ADME, cell-free
[2] = Protein binding in monkey serum; assay type: ADME, cell-free, Macaca mulatta; settings: rhesus monkey, read-out: PB (converted)
[3] = Protein binding in human serum; assay type: ADME, cell-free; settings: read-out: PB (converted)

PB [1]: 99.8% | fraction unbound [2]: 0.007 | fraction unbound [3]: 0.005
Structure (SMILES): COc1cc(-n2cnc3cc(-c4ccc(Cl)cc4)sc3c2=O)ccc1OC[C@H](O)C1CC1
